Assay [1] relates to Mast cells. Nature of the assay: Mast cell chemotaxis assay (histamine-induced, transwell). Format: cell-based. The conditions noted are these: 10 μM histamine, 3 h at 37° C. As for the experimental part: Mast Cell Chemotaxis Assay
In addition, it is known that mast cell numbers increase in a number of inflammatory conditions. Some of this is due to chemotaxis of mast cells to the sites of inflammation. This chemotaxis to specific agents can be mimicked in vitro. Transwells (Costar, Cambridge, Mass.) of a pore size 8 μm were coated with 100 μL of 100 ng/mL human fibronectin (Sigma) for 2 h at room temperature. After removal of the fibronectin, 600 μL of RPMI with 5% BSA, in the presence of 10 μM histamine, was added to the bottom chamber. To test the various histamine receptor (HR) antagonists, 10 μM and/or 1 μM solutions of the test compounds were added to the top and bottom chambers. Mast cells (2×10^5/well) were added to the top chamber. The plates were incubated for 3 h at 37° C. Transwells were removed and the cells in the bottom chamber were counted for sixty seconds using a flow cytometer.

In assay [2] the target is T1, human histamine H4 receptor (Homo sapiens, UniProt Q9H3N8).
T1 construct: expressed in transfected cells; host or cells: SK-N-MC cells or COS7 cells, transiently transfected; membrane preparation
The assay is described as follows: Binding assay on recombinant human histamine H4 receptor (3H-histamine displacement). As to the method:
Binding Assay on Recombinant Human Histamine H4 Receptor
SK-N-MC cells or COS7 cells were transiently transfected with pH4R and grown in 150 cm^2 tissue culture dishes. Cells were washed with saline solution, scraped with a cell scraper and collected by centrifugation (1000 rpm, 5 min). Cell membranes were prepared by homogenization of the cell pellet in 20 mM Tris-HCl with a polytron tissue homogenizer for 10 s at high speed. Homogenate was centrifuged at 1000 rpm for 5 min at 4° C. The supernatant was then collected and centrifuged at 20,000× g for 25 min at 4° C. The final pellet was resuspended in 50 mM Tris-HCl. Cell membranes were incubated with ^3H-histamine (5-70 nM) in the presence or absence of excess histamine (10000 nM). Incubation occurred at room temperature for 45 min. Membranes were harvested by rapid filtration over Whatman GF/C filters and washed 4 times with ice-cold 50 mM Tris HCl. Filters were then dried, mixed with scintillant and counted for radioactivity. SK-N-MC or COS7 cells expressing human histamine H4 receptor were used to measure the affinity of binding of other compounds and their ability to displace ^3H-ligand binding by incubating the above-described reaction in the presence of various concentrations of inhibitor or compound to be tested.

Assay [3] concerns human eosinophils. The assay is described as follows: Inhibition of eosinophil shape change (gated autofluorescence forward scatter assay). The note with it: for effect on histamine-induced shape change: antagonist, human eosinophils; for Fold Change (eosinophil shape change): 10 μM antagonist.
Assay [4] has as its system human eosinophils. The note with it: cited from earlier work.
Where [5] appears, read: Table 1, competition with 3H-histamine, Cheng-Prusoff, KD 5 nM, ligand 5 nM, read-out: Ki.

Data on 34 compounds can be found in patent US20050070527A1, “Quinoxaline compounds” (priority 2003, published 2005).

Like-named read-outs stand apart in the source and are kept apart here.

T1 sequence (Q9H3N8 whole entry): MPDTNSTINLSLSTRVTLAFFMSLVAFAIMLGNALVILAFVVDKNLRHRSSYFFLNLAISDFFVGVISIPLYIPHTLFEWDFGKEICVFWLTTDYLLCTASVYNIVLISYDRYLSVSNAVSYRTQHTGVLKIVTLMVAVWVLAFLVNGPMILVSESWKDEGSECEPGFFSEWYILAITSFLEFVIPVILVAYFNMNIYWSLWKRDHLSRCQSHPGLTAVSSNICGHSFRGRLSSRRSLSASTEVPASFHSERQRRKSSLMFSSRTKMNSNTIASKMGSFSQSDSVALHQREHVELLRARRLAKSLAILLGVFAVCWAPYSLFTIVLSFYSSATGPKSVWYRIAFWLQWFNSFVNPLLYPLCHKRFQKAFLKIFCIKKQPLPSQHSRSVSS

As for `CN1CCN(c2nc3cc(Cl)c(Cl)cc3[nH]c2=O)CC1` [Example 14, 6,7-Dichloro-3-(4-methyl-piperazin-1-yl)-1H-quinoxalin-2-one], the figures for the “% Inh” value in assay [1] (HR antagonist 1 μM) and in assay [1] (HR antagonist 10 μM) were 71% and 80%, respectively. Moreover, in assay [2] (setting [5]), the Ki was found to be 32 nM.
Take `CN1CCN(c2nc3ccc(Cl)cc3[nH]c2=O)CC1` [Example 10, 7-Chloro-3-(4-methyl-piperazin-1-yl)-1H-quinoxalin-2-one]: the Ki in assay [2] (read-out: Ki) is 31 nM.
Consider `CN1CCN(c2nc3cc(F)c(F)cc3[nH]c2=O)CC1` [Example 17, 6,7-Difluoro-3-(4-methyl-piperazin-1-yl)-1H-quinoxalin-2-one], for which the Ki in assay [2] (setting [5]) came to 74 nM.
Consider `Cc1cccc2nc(N3CCNCC3)c(=O)[nH]c12` [Example 2, 8-Methyl-3-piperazin-1-yl-1H-quinoxalin-2-one], for which the “% Inh” value in assay [1] (HR antagonist 1 μM) is reported as 50%. Besides, the Ki in assay [2] (read-out: Ki) worked out at 16 nM.
On to `CN1CCN(C(=O)c2cc3cc(Cl)ccc3[nH]2)CC1` [(5-chloro-1H-indol-2-yl)-(4-methyl-piperazin-1-yl)-methanone], for which the IC50 in assay [3] (Homo sapiens, Eosinophil, read-out: IC50, inhibition of histamine-induced eosinophil shape change) is 270 nM.
Regarding `CN1CCCN(c2nc3cc(Cl)c(Cl)cc3[nH]c2=O)CC1` [Example 16, 6,7-Dichloro-3-(4-methyl-[1,4]diazepan-1-yl)-1H-quinoxalin-2-one], the Ki in assay [2] (setting [5]) was determined as 1610 nM.
As for “3-(4-Methyl-piperazin-1-yl)-6-trifluoromethyl-1H-qui noxalin-2-one; and 3-(4-Methyl-piperazin-1-yl)-7-trifluoromethyl-1H-quinoxalin-2-one [Example 11]”, the Ki in assay [2] (setting [5]) was 11 nM.
On to “3-piperazin-1-yl-6-trifluoromethyl-1H-quinoxalin-2-one; and 3-piperazin-1-yl-7-trifluoromethyl-1H-quinoxalin-2-one [Example 24]”, for which the Ki in assay [2] (setting [5]) is 467 nM.
For the compound `CN1CCN(c2nc3cc(Cl)ccc3[nH]c2=O)CC1` [Example 9, 6-Chloro-3-(4-methyl-piperazin-1-yl)-1H-quinoxalin-2-one], in assay [2] (read-out: Ki), the Ki amounted to 84 nM.
For `CNC(=C[N+](=O)[O-])NCCSCc1ccc(CN(C)C)o1` [ranatidine], the “effect on histamine-induced shape change” value in assay [3] is “did not alter”. Besides, the “Fold Change (eosinophil shape change)” value came to 1.00 in assay [3] (histamine 0 μM); 1.04 in assay [3] (histamine 0.01 μM); 1.21 in assay [3] (histamine 0.1 μM); 1.49 in assay [3] (histamine 1 μM); 1.64 in assay [3] (histamine 10 μM).
As to “6-Chloro-7-fluoro-3-(4-methyl-piperazin-1-yl)-1H-quinoxalin-2-one; and 7-Chloro-6-fluoro-3-(4-methyl-piperazin-1-yl)-1H-quinoxalin-2-one [Example 25]”, the “% Inh” value in assay [1] (HR antagonist 1 μM) came to 81%; in assay [1] (HR antagonist 10 μM), 79%. Also, the Ki came to 12 nM in assay [2] (setting [5]) and 12 nM in assay [2] (repeated in the mast cell chemotaxis table, read-out: Binding Assay Ki).
Regarding “6-Chloro-3-(4-methyl-piperazin-1-yl)-1H-quinoxalin-2-one; and 7-Chloro-3-(4-methyl-piperazin-1-yl)-1H-quinoxalin-2-one [Example 8]”, the Ki in assay [2] (read-out: Ki) stood at 21 nM.
Turning to `NCCc1c[nH]cn1` [histamine], the “activation of calcium mobilization” value in assay [4] is “activate calcium mobilization”. In assay [3] (histamine alone, 0.01-10 μM), the “shape change in eosinophils (agonist effect)” value is “induces a dose-dependent shape change”.
As to `CN1CCN(c2nc3cc(C(F)(F)F)cc(Cl)c3[nH]c2=O)CC1` [Example 23, 8-Chloro-3-(4-methyl-piperazin-1-yl)-6-trifluoromethyl-1H-quinoxalin-2-one], in assay [2] (setting [5]), the Ki worked out at 166 nM.
Still for that read-out and setting: the same measure for `CN1CCN(c2nc3ccc(C(F)(F)F)cc3[nH]c2=O)CC1` [Example 13, 3-(4-Methyl-piperazin-1-yl)-7-trifluoromethyl-1H-quinoxalin-2-one]: 19 nM.
For `Cc1cccc2nc(N3CCNC(C)C3)c(=O)[nH]c12` (stereo not drawn) [Example 5, 8-Methyl-3-(3-methyl-piperazin-1-yl)-1H-quinoxalin-2-one], the Ki in assay [2] (read-out: Ki) turned out to be 40 nM.
For the compound `CN1CCN(c2nc3cc(C(F)(F)F)ccc3[nH]c2=O)CC1` [Example 12, 3-(4-Methyl-piperazin-1-yl)-6-trifluoromethyl-1H-quinoxalin-2-one], the “% Inh” value in assay [1] (HR antagonist 1 μM) came out at 99%. Further, the Ki in assay [2] (setting [5]) was determined as 24 nM.
On to `Cc1cccc2nc(N3CCN(CCO)CC3)c(=O)[nH]c12` [Example 7, 3-[4-(2-Hydroxy-ethyl)-piperazin-1-yl]-8-methyl-1H-quinoxalin-2-one], for which, in assay [2] (setting [5]), the Ki is 852 nM.
Still for that read-out and setting: with `CN1CCN(c2nc3ccc(F)c(F)c3[nH]c2=O)CC1` [Example 22, 7,8-Difluoro-3-(4-methyl-piperazin-1-yl)-1H-quinoxalin-2-one] the figure was 30 nM.
For `CN1CCN(c2nc3cc(F)ccc3[nH]c2=O)CC1` [Example 21, 6-Fluoro-3-(4-methyl-piperazin-1-yl)-1H-quinoxalin-2-one], in assay [2] (read-out: Ki), the inhibitory constant (Ki) turned out to be 39 nM.
`CN(C)CCOC(c1ccccc1)c1ccccc1` [diphenhydramine]: the “effect on histamine-induced shape change” value in assay [3] is recorded as “did not alter”. Besides, the “Fold Change (eosinophil shape change)” value in assay [3] (histamine 0 μM) came out at 1.00; in assay [3] (histamine 0.01 μM), 1.03; in assay [3] (histamine 0.1 μM) it was 1.18; in assay [3] (histamine 1 μM), 1.50; in assay [3] (histamine 10 μM), 1.63.
`O=c1[nH]c2c(F)c(F)ccc2nc1N1CCNCC1` [Example 4, 7,8-Difluoro-3-piperazin-1-yl-1H-quinoxalin-2-one]: the Ki in assay [2] (setting [5]) is 430 nM.
Consider “3-(3-Methyl-piperazin-1-yl)-6-trifluoromethyl-1H-quinoxalin-2-one; and 3-(3-Methyl-piperazin-1-yl)-7-trifluoromethyl-1H-qui noxalin-2-one [Example 28]”, for which the Ki in assay [2] (setting [5]) is 743 nM.
As to `S=C(NC1CCCCC1)N1CCC(c2cnc[nH]2)CC1` [thioperamide], the “blockade of calcium mobilization responses” value in assay [4] (responses to histamine and R-α-methylhistamine) is given as “blocked”.
As for “7-Chloro-6-methyl-3-(4-methyl-piperazin-1-yl)-1H-quinoxalin-2-one; and 6-Chloro-7-methyl-3-(4-methyl-piperazin-1-yl)-1H-quinoxalin-2-one [Example 18]”, the Ki in assay [2] (setting [5]) is 112 nM.
For `O=c1[nH]c2c([N+](=O)[O-])cccc2nc1N1CCNCC1` [Example 3, 8-Nitro-3-piperazin-1-yl-1H-quinoxalin-2-one], the Ki in assay [2] (setting [5]) came to 640 nM.
With `Cc1cc2nc(N3CCN(C)CC3)c(=O)[nH]c2cc1Cl` [Example 19, 7-Chloro-6-methyl-3-(4-methyl-piperazin-1-yl)-1H-quinoxalin-2-one], the Ki in assay [2] (setting [5]) was found to be 93 nM.
For the compound `O=c1[nH]c2cc(Cl)c(Cl)cc2nc1N1CCNCC1` [Example 15, 6,7-Dichloro-3-piperazin-1-yl-1H-quinoxalin-2-one], the Ki in assay [2] (read-out: Ki) turned out to be 56 nM.
In the case of `Cc1cccc2nc(N3CCN(C)CC3)c(=O)[nH]c12` [Example 1, 8-Methyl-3-(4-methyl-piperazin-1-yl)-1H-quinoxalin-2-one], in assay [1] (HR antagonist 1 μM), the “% Inh” value is recorded as 76%. Besides, the Ki in assay [2] (read-out: Ki) worked out at 6 nM.
“6-Chloro-3-(3-methyl-piperazin-1-yl)-1H-quinoxalin-2-one; and 7-Chloro-3-(3-methyl-piperazin-1-yl)-1H-quinoxalin-2-one [Example 27]”: the Ki in assay [2] (read-out: Ki) turned out to be 467 nM.
`CC1CN(c2nc3ccccc3[nH]c2=O)CCN1` (stereo not drawn) [Example 6, 3-(3-Methyl-piperazin-1-yl)-1H-quinoxalin-2-one]: the Ki in assay [2] (setting [5]) was 681 nM.
As for `C[C@@H](N)Cc1c[nH]cn1` [R-α-methylhistamine], in assay [4], the “activation of calcium mobilization” value is listed as “activate calcium mobilization” and the “potency relative to histamine in calcium mobilization” value is “significantly less potent than histamine”.
With “7-Chloro-3-piperazin-1-yl-1H-quinoxalin-2-one; and 6-Chloro-3-piperazin-1-yl-1H-quinoxalin-2-one [Example 26]”, the Ki in assay [2] (read-out: Ki) came out at 152 nM.
Consider `Cc1cc2[nH]c(=O)c(N3CCN(C)CC3)nc2cc1Cl` [Example 20, 6-Chloro-7-methyl-3-(4-methyl-piperazin-1-yl)-1H-quinoxalin-2-one], for which the Ki in assay [2] (setting [5]) came to 83 nM.
